Data reported in patent publication US12077503B2, “Substituted cyclic amides and their use as herbicides” (FMC CORPORATION, priority 2015, dated 2024).

Tests used:
Type in all cases: in vivo
[1] = test system: barnyardgrass (Echinochloa crus-galli); experiment: Test B flooded paddy test; conditions: Echinochloa crus-galli, 250 g ai/ha, Flood; 0 to 100 scale where 0 is no effect and 100 is complete control; read-out: Barnyardgrass plant response rating
Procedure, shortened: (§1)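 Percent control, visually estimated after 13–15 d in the greenhouse on a 0–100 basis, compares treated pots with untreated ones; compound was put into paddy water 3 cm above the soil when plants had two leaves.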

[2] = test system: ducksalad (Heteranthera limosa); experiment: Test B flooded paddy test; conditions: Heteranthera limosa, 250 g ai/ha, Flood; 0 to 100 scale where 0 is no effect and 100 is complete control; read-out: Ducksalad plant response rating
Procedure, shortened: as §1

[3] = test system: sedge, umbrella (small-flower umbrella sedge, Cyperus difformis); experiment: Test B flooded paddy test; conditions: Cyperus difformis, 250 g ai/ha, Flood; 0 to 100 scale where 0 is no effect and 100 is complete control; read-out: Sedge, Umbrella plant response rating
Procedure, shortened: as §1

[4] = test system: rice (Oryra sativa); experiment: Test B flooded paddy test; conditions: Oryza sativa, 250 g ai/ha, Flood; 0 to 100 scale where 0 is no effect and 100 is complete control; read-out: Rice plant response rating
Procedure, shortened: as §1

[5] = test system: barnyardgrass (Echinochloa crus-galli); experiment: Test A preemergence; conditions: Echinochloa crus-galli, pre-emergence, 240 h, 0 to 100 scale where 0 is no effect and 100 is complete control, read-out: Barnyardgrass plant response rating; for pest or weed control at 31 g/ha: 31 g ai/ha, Preemergence; for pest or weed control at 125 g/ha: 125 g ai/ha, preemergence, approx. 10 d
Procedure, shortened: (§2)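 Each rating is a visual injury score from 0 to 100 given about 10 d after treatment, judged against untreated controls kept alongside in the greenhouse. In loam soil–sand blend, seeds got a preemergence directed soil spray, while postemergence plants were 2 to 10 cm tall at spraying.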

[6] = test system: ryegrass, Italian (Italian ryegrass, Lolium multiflorum); experiment: Test A preemergence; conditions: Lolium multiflorum, pre-emergence, 240 h, 0 to 100 scale where 0 is no effect and 100 is complete control, read-out: Ryegrass, Italian plant response rating; for pest or weed control at 31 g/ha: 31 g ai/ha, Preemergence; for pest or weed control at 125 g/ha: 125 g ai/ha, preemergence, approx. 10 d
Procedure, shortened: as §2

[7] = test system: giant foxtail (Setaria faberii); experiment: Test A preemergence; conditions: Setaria faberi, pre-emergence, 240 h, 0 to 100 scale where 0 is no effect and 100 is complete control, read-out: Foxtail, Giant plant response rating; for pest or weed control at 31 g/ha: 31 g ai/ha, Preemergence; for pest or weed control at 125 g/ha: 125 g ai/ha, preemergence, approx. 10 d
Procedure, shortened: as §2

[8] = test system: ragweed (common ragweed, Ambrosia elatior); experiment: Test A preemergence; conditions: Ambrosia artemisiifolia, pre-emergence, 240 h, 0 to 100 scale where 0 is no effect and 100 is complete control, read-out: Ragweed plant response rating; for pest or weed control at 31 g/ha: 31 g ai/ha, Preemergence; for pest or weed control at 125 g/ha: 125 g ai/ha, preemergence, approx. 10 d
Procedure, shortened: as §2

[9] = test system: pigweed (Amaranthus retroflexus); experiment: Test A preemergence; conditions: Amaranthus retroflexus, pre-emergence, 240 h, 0 to 100 scale where 0 is no effect and 100 is complete control, read-out: Pigweed plant response rating; for pest or weed control at 31 g/ha: 31 g ai/ha, Preemergence; for pest or weed control at 125 g/ha: 125 g ai/ha, preemergence, approx. 10 d
[10] = test system: Kochia (Kochia scoparia); experiment: Test A preemergence; conditions: Bassia scoparia, pre-emergence, 240 h, 0 to 100 scale where 0 is no effect and 100 is complete control, read-out: Kochia plant response rating; for pest or weed control at 31 g/ha: 31 g ai/ha, Preemergence; for pest or weed control at 125 g/ha: 125 g ai/ha, preemergence, approx. 10 d
Procedure, shortened: as §2

[11] = test system: barnyardgrass (Echinochloa crus-galli); experiment: Test A postemergence; conditions: Echinochloa crus-galli, post-emergence, 240 h; for pest or weed control at 125 g/ha: 125 g ai/ha, postemergence, visual injury on 0 to 100 scale (0 no effect, 100 complete control), approx. 10 d, read-out: Barnyardgrass plant response rating; for pest or weed control at 31 g/ha: Postemergence, 31 g ai/ha, visual injury after approx. 10 d, 0 to 100 scale, 0 no effect, 100 complete control, read-out: Plant response rating, Barnyardgrass
Procedure, shortened: as §2

[12] = test system: ryegrass, Italian (Italian ryegrass, Lolium multiflorum); experiment: Test A postemergence; conditions: Lolium multiflorum, post-emergence, 240 h; for pest or weed control at 125 g/ha: 125 g ai/ha, postemergence, visual injury on 0 to 100 scale (0 no effect, 100 complete control), approx. 10 d, read-out: Ryegrass, Italian plant response rating; for pest or weed control at 31 g/ha: Postemergence, 31 g ai/ha, visual injury after approx. 10 d, 0 to 100 scale, 0 no effect, 100 complete control, read-out: Plant response rating, Ryegrass, Italian
Procedure, shortened: as §2

[13] = test system: giant foxtail (Setaria faberii); experiment: Test A postemergence; conditions: Setaria faberi, post-emergence, 240 h; for pest or weed control at 125 g/ha: 125 g ai/ha, postemergence, visual injury on 0 to 100 scale (0 no effect, 100 complete control), approx. 10 d, read-out: Foxtail, Giant plant response rating; for pest or weed control at 31 g/ha: Postemergence, 31 g ai/ha, visual injury after approx. 10 d, 0 to 100 scale, 0 no effect, 100 complete control, read-out: Plant response rating, Foxtail, Giant
Procedure, shortened: as §2

[14] = test system: corn (Zea mays); experiment: Test A postemergence; conditions: Zea mays, post-emergence, 240 h; for plant injury at 125 g/ha: 125 g ai/ha, postemergence, visual injury on 0 to 100 scale (0 no effect, 100 complete control), approx. 10 d, read-out: Corn plant response rating; for Corn plant response rating (crop injury, 0 = no effect, 100 = complete kill) at 31 g/ha: Postemergence, 31 g ai/ha, visual injury after approx. 10 d, 0 to 100 scale, 100 complete control
Procedure, shortened: as §2

[15] = test system: blackgrass (Alopecurus myosuroides); experiment: Test A postemergence; conditions: Alopecurus myosuroides, post-emergence, 240 h; for pest or weed control at 125 g/ha: 125 g ai/ha, postemergence, visual injury on 0 to 100 scale (0 no effect, 100 complete control), approx. 10 d, read-out: Blackgrass plant response rating; for pest or weed control at 31 g/ha: Postemergence, 31 g ai/ha, visual injury after approx. 10 d, 0 to 100 scale, 0 no effect, 100 complete control, read-out: Plant response rating, Blackgrass
Procedure, shortened: as §2

[16] = test system: wheat (Triticum aestivum); experiment: Test A postemergence; conditions: Triticum aestivum, post-emergence, 240 h; for plant injury at 125 g/ha: 125 g ai/ha, postemergence, visual injury on 0 to 100 scale (0 no effect, 100 complete control), approx. 10 d, read-out: Wheat plant response rating; for plant injury at 31 g/ha: Postemergence, 31 g ai/ha, visual injury after approx. 10 d, 0 to 100 scale, 0 no effect, 100 complete control, read-out: Plant response rating, Wheat
Procedure, shortened: as §2

[17] = test system: ragweed (common ragweed, Ambrosia elatior); experiment: Test A postemergence; conditions: Ambrosia artemisiifolia, post-emergence, 240 h; for pest or weed control at 125 g/ha: 125 g ai/ha, postemergence, visual injury on 0 to 100 scale (0 no effect, 100 complete control), approx. 10 d, read-out: Ragweed plant response rating; for pest or weed control at 31 g/ha: Postemergence, 31 g ai/ha, visual injury after approx. 10 d, 0 to 100 scale, 0 no effect, 100 complete control, read-out: Plant response rating, Ragweed
Procedure, shortened: as §2

[18] = test system: pigweed (Amaranthus retroflexus); experiment: Test A postemergence; conditions: Amaranthus retroflexus, post-emergence, 240 h; for pest or weed control at 125 g/ha: 125 g ai/ha, postemergence, visual injury on 0 to 100 scale (0 no effect, 100 complete control), approx. 10 d, read-out: Pigweed plant response rating; for pest or weed control at 31 g/ha: Postemergence, 31 g ai/ha, visual injury after approx. 10 d, 0 to 100 scale, 0 no effect, 100 complete control, read-out: Plant response rating, Pigweed
Procedure, shortened: as §2

[19] = test system: Kochia (Kochia scoparia); experiment: Test A postemergence; conditions: Bassia scoparia, post-emergence, 240 h; for pest or weed control at 125 g/ha: 125 g ai/ha, postemergence, visual injury on 0 to 100 scale (0 no effect, 100 complete control), approx. 10 d, read-out: Kochia plant response rating; for pest or weed control at 31 g/ha: Postemergence, 31 g ai/ha, visual injury after approx. 10 d, 0 to 100 scale, 0 no effect, 100 complete control, read-out: Plant response rating, Kochia
Procedure, shortened: as §2

[20] = test system: Galium (catchweed bedstraw, Galium aparine); experiment: Test A postemergence; conditions: Galium, post-emergence, 240 h; for pest or weed control at 125 g/ha: 125 g ai/ha, postemergence, visual injury on 0 to 100 scale (0 no effect, 100 complete control), approx. 10 d, read-out: Galium plant response rating; for pest or weed control at 31 g/ha: Postemergence, 31 g ai/ha, visual injury after approx. 10 d, 0 to 100 scale, 0 no effect, 100 complete control, read-out: Plant response rating, Galium
Procedure, shortened: as §2

SMILES	pest or weed control at 250 g/ha [1]	pest or weed control at 250 g/ha [2]	pest or weed control at 250 g/ha [3]	pest or weed control at 250 g/ha [4]	pest or weed control at 31 g/ha [5]	pest or weed control at 125 g/ha [5]	pest or weed control at 31 g/ha [6]	pest or weed control at 125 g/ha [6]	pest or weed control at 31 g/ha [7]	pest or weed control at 125 g/ha [7]	pest or weed control at 31 g/ha [8]	pest or weed control at 125 g/ha [8]	pest or weed control at 31 g/ha [9]	pest or weed control at 125 g/ha [9]	pest or weed control at 31 g/ha [10]	pest or weed control at 125 g/ha [10]	pest or weed control at 125 g/ha [11]	pest or weed control at 31 g/ha [11]	pest or weed control at 125 g/ha [12]	pest or weed control at 31 g/ha [12]	further results
O=C(Nc1ccc(F)c(F)c1F)[C@H]1C(=O)N(O)CC[C@@H]1c1ccc(C(F)(F)F)cc1 [Compound 1108]	40%	85%	75%	20%	0%	0%	0%	0%	0%	0%	0%	0%	0%	0%	0%	0%	0%	0%	0%	0%	pest or weed control at 125 g/ha [13]: 0%; pest or weed control at 31 g/ha [13]: 0%; plant injury at 125 g/ha [14]: 0%; Corn plant response rating (crop injury, 0 = no effect, 100 = complete kill) at 31 g/ha [14]: 0%; pest or weed control at 125 g/ha [15]: 0%; pest or weed control at 31 g/ha [15]: 0%; plant injury at 125 g/ha [16]: 0%; plant injury at 31 g/ha [16]: 0%; pest or weed control at 125 g/ha [17]: 0%; pest or weed control at 31 g/ha [17]: 0%; pest or weed control at 125 g/ha [18]: 0%; pest or weed control at 31 g/ha [18]: 0%; pest or weed control at 125 g/ha [19]: 0%; pest or weed control at 31 g/ha [19]: 0%; pest or weed control at 125 g/ha [20]: 0%; pest or weed control at 31 g/ha [20]: 0%
CN1C[C@H](c2ccc(C(F)(F)F)nc2)[C@@](C)(C(=O)Nc2cccc(F)c2F)C1=O [Compound 1109]	85%	90%	0%	50%	100%	100%	60%	80%	100%	100%	0%	50%	70%	90%	0%	70%	100%	90%	50%	0%	pest or weed control at 125 g/ha [13]: 90%; pest or weed control at 31 g/ha [13]: 70%; plant injury at 125 g/ha [14]: 80%; Corn plant response rating (crop injury, 0 = no effect, 100 = complete kill) at 31 g/ha [14]: 40%; pest or weed control at 125 g/ha [15]: 40%; pest or weed control at 31 g/ha [15]: 20%; plant injury at 125 g/ha [16]: 60%; plant injury at 31 g/ha [16]: 30%; pest or weed control at 125 g/ha [17]: 50%; pest or weed control at 31 g/ha [17]: 0%; pest or weed control at 125 g/ha [18]: 60%; pest or weed control at 31 g/ha [18]: 20%; pest or weed control at 125 g/ha [19]: 70%; pest or weed control at 31 g/ha [19]: 20%; pest or weed control at 125 g/ha [20]: 50%; pest or weed control at 31 g/ha [20]: 30%
